{"source": "ChEMBL document CHEMBL6115031", "about": "“Structure-Based Optimization of Moracin M as Potent and Selective PDE4 Inhibitors with Antipsoriasis Effects” (J Med Chem, 2025)", "key": {"Mus musculus [1]": {"system": "Mus musculus", "experiment": "Anti-inflammatory activity in IMQ-induced psoriasis in female BALB/c mouse assessed as reduction in CXCL-2 mRNA level at 20 mg/kg administered topically as 0.3 % ointment pretreated with IMQ for 6 hrs followed by compound addition once daily for 7 days by q-PCR analysis", "assay_type": "functional, organism-based", "conditions": "time 7.0 day"}, "HaCaT [2]": {"system": "HaCaT", "experiment": "Anti-psoriasis effect in M5-stimulated human HaCaT cells assessed as decrease in K6 protein expression at 20 uM pretreated with M5 followed by compound addition and measured after 24 hrs by Western blotting analysis", "assay_type": "functional, cell-based"}, "RAW264.7": {"system": "RAW264.7", "experiment": "Anti-inflammatory activity in LPS-stimulated mouse RAW264.7 cells assessed as reduction in IL-6 mRNA level pretreated with compound for 2 hrs followed by LPS stimulation and measured after 6 hrs by q-PCR analysis", "assay_type": "functional, cell-based", "conditions": "dose 5-20 µM, time 8.0 hrs"}, "[3]": {"biological_target": "cGMP-specific 3',5'-cyclic phosphodiesterase (Homo sapiens, UniProt O76074)", "experiment": "Inhibition of PDE5A1 (535 to 860 residues) (unknown origin) extracted from Escherichia coli BL21 cells using 3H-cAMP/3H-cGMP as substrate preincubated with compound for 15 mins followed by substrate addition by liquid scintillation counter"}, "Mus musculus [4]": {"system": "Mus musculus", "experiment": "Anti-psoriasis effect in IMQ-induced female BALB/c mouse assessed as reduction in skin thickness at 20 mg/kg administered topically as 0.3 % ointment pretreated with IMQ for 6 hrs followed by compound addition once daily for 7 days", "assay_type": "functional, organism-based", "conditions": "time 7.0 day"}, "[5]": {"biological_target": "3',5'-cyclic-AMP phosphodiesterase 4D (Homo sapiens, UniProt Q08499)", "sequence (Q08499 whole entry, the tested form may be a part)": "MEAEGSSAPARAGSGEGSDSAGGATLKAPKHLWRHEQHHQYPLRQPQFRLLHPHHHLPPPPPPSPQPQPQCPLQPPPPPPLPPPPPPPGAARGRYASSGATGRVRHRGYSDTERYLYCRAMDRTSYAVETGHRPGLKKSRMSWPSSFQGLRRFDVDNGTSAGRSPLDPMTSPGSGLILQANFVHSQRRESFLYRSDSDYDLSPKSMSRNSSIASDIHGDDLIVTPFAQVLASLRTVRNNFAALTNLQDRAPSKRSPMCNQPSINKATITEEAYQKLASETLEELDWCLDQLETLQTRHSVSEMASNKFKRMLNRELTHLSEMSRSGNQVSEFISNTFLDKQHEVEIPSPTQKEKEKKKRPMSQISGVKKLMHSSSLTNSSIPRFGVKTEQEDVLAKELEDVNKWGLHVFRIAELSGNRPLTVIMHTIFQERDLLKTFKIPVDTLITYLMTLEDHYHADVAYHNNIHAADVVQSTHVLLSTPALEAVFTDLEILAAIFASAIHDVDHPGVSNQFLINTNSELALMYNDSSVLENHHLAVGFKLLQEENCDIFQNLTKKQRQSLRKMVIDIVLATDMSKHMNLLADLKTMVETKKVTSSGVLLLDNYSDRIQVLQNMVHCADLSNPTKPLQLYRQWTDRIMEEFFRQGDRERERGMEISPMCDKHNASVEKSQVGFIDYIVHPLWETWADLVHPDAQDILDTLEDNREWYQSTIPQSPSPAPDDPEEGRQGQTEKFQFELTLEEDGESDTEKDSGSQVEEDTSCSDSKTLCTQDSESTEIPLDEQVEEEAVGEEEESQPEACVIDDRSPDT", "experiment": "Inhibition of human PDE4D2 (86 to 413 residues) extracted from Escherichia coli BL21 cells using 3H-cAMP/3H-cGMP as substrate preincubated with compound for 15 mins followed by substrate addition by liquid scintillation counter"}, "HaCaT [6]": {"system": "HaCaT", "experiment": "Anti-psoriasis effect in M5-stimulated human HaCaT cells assessed as decrease in K17 protein expression at 20 uM pretreated with M5 followed by compound addition and measured after 24 hrs by Western blotting analysis", "assay_type": "functional, cell-based"}, "Mus musculus [7]": {"system": "Mus musculus", "experiment": "Anti-psoriasis effect in IMQ-induced female BALB/c mouse assessed as reduction in severity of skin erythema at 20 mg/kg administered topically as 0.3 % ointment pretreated with IMQ for 6 hrs followed by compound addition once daily for 7 days", "assay_type": "functional, organism-based", "conditions": "time 7.0 day"}, "Mus musculus [8]": {"system": "Mus musculus", "experiment": "Anti-psoriasis effect in female BALB/c mouse model assessed as reduction in K17 protein expression at 20 mg/kg administered topically as 0.3 % ointment pretreated with IMQ for 6 hrs followed by compound addition once daily for 7 days by Western blotting analysis", "assay_type": "functional, organism-based", "conditions": "time 7.0 day"}, "Mus musculus [9]": {"system": "Mus musculus", "experiment": "Anti-psoriasis effect in IMQ-induced female BALB/c mouse model assessed as reduction in abnormal rete ridges at 20 mg/kg administered topically as 0.3 % ointment pretreated with IMQ for 6 hrs followed by compound addition once daily for 7 days by H and E staining based analysis", "assay_type": "functional, organism-based", "conditions": "time 7.0 day"}, "Mus musculus [10]": {"system": "Mus musculus", "experiment": "Anti-psoriasis effect in IMQ-induced female BALB/c mouse model assessed as reduction in spinous layer thickness at 20 mg/kg administered topically as 0.3 % ointment pretreated with IMQ for 6 hrs followed by compound addition once daily for 7 days by H and E staining based analysis", "assay_type": "functional, organism-based", "conditions": "time 7.0 day"}, "[11]": {"biological_target": "cAMP and cAMP-inhibited cGMP 3',5'-cyclic phosphodiesterase 10A (Homo sapiens, UniProt Q9Y233)", "sequence (Q9Y233 whole entry, the tested form may be a part)": "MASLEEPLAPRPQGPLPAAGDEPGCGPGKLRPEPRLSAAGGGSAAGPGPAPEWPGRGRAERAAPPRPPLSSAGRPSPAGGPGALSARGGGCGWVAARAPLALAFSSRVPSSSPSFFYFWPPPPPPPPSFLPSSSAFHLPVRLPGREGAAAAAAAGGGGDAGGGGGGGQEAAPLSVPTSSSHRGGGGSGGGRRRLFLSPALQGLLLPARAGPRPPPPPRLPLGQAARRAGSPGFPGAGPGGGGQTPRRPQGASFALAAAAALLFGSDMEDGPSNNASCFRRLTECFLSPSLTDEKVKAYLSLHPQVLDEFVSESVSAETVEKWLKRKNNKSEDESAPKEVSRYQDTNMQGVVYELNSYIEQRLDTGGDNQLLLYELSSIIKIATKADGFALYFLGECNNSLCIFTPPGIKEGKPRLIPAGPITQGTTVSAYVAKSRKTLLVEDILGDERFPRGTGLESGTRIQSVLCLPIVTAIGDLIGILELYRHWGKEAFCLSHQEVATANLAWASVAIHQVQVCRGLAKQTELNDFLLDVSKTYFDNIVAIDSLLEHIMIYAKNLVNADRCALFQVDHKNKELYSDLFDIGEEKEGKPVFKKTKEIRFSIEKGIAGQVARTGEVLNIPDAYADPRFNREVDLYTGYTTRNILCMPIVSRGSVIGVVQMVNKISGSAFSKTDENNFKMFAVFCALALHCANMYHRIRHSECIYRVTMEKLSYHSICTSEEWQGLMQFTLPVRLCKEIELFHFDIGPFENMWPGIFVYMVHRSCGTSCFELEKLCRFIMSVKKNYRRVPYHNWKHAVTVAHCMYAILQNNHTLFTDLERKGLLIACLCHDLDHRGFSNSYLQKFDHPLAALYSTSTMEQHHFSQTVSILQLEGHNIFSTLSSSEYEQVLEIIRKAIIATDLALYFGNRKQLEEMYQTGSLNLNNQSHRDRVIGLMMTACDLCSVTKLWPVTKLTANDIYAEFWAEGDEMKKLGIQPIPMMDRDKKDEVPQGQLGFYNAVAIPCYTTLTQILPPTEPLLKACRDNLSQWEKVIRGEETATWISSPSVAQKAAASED", "experiment": "Inhibition of PDE10A2 (449 to 770 residues) (unknown origin) extracted from Escherichia coli BL21 cells using 3H-cAMP/3H-cGMP as substrate preincubated with compound for 15 mins followed by substrate addition by liquid scintillation counter"}, "Mus musculus [12]": {"system": "Mus musculus", "experiment": "Anti-psoriasis effect in IMQ-induced female BALB/c mouse assessed as change in weight of spleen at 20 mg/kg administered topically as 0.3 % ointment pretreated with IMQ for 6 hrs followed by compound addition once daily for 7 days by H and E staining based analysis", "assay_type": "functional, organism-based", "conditions": "time 7.0 day"}, "Mus musculus [13]": {"system": "Mus musculus", "experiment": "Anti-inflammatory activity in IMQ-induced psoriasis in female BALB/c mouse assessed as reduction in IL-17 mRNA level at 20 mg/kg administered topically as 0.3 % ointment pretreated with IMQ for 6 hrs followed by compound addition once daily for 7 days by q-PCR analysis", "assay_type": "functional, organism-based", "conditions": "time 7.0 day"}, "Mus musculus [14]": {"system": "Mus musculus", "experiment": "Anti-psoriasis effect in female BALB/c mouse model assessed as increase in K10 protein expression at 20 mg/kg administered topically as 0.3 % ointment pretreated with IMQ for 6 hrs followed by compound addition once daily for 7 days by Western blotting analysis", "assay_type": "functional, organism-based", "conditions": "time 7.0 day"}, "HaCaT [15]": {"system": "HaCaT", "experiment": "Anti-psoriasis effect in M5-stimulated human HaCaT cells assessed as upregulation of K10 protein expression at 20 uM pretreated with M5 followed by compound addition and measured after 24 hrs by Western blotting analysis", "assay_type": "functional, cell-based"}, "HaCaT [16]": {"system": "HaCaT", "experiment": "Anti-inflammatory activity in M5- stimulated human HaCaT cells assessed as reduction in CXCL-2 mRNA level incubated for 24 hrs by q-PCR analysis", "assay_type": "functional, cell-based", "conditions": "dose 5-20 µM"}, "HaCaT [17]": {"system": "HaCaT", "experiment": "Anti-psoriasis activity in M5-stimulated human HaCaT cells assessed as restoration of cAMP level at 20 uM incubated for 2 hrs by competitive ELISA", "assay_type": "functional, cell-based"}, "Mus musculus [18]": {"system": "Mus musculus", "experiment": "Anti-psoriasis effect in IMQ-induced female BALB/c mouse assessed as decrease in skin thickness at 20 mg/kg administered topically as 0.3 % ointment pretreated with IMQ for 6 hrs followed by compound addition once daily for 7 days", "assay_type": "functional, organism-based", "conditions": "time 7.0 day"}, "Mus musculus [19]": {"system": "Mus musculus", "experiment": "Anti-psoriasis effect in female BALB/c mouse model assessed as increase in K1 protein expression at 20 mg/kg administered topically as 0.3 % ointment pretreated with IMQ for 6 hrs followed by compound addition once daily for 7 days by Western blotting analysis", "assay_type": "functional, organism-based", "conditions": "time 7.0 day"}, "Mus musculus [20]": {"system": "Mus musculus", "experiment": "Anti-psoriasis effect in IMQ-induced female BALB/c mouse assessed as change in body weight at 20 mg/kg administered topically as 0.3 % ointment pretreated with IMQ for 6 hrs followed by compound addition once daily for 7 days", "assay_type": "functional, organism-based", "conditions": "time 7.0 day"}, "Mus musculus [21]": {"system": "Mus musculus", "experiment": "Anti-psoriasis effect in female BALB/c mouse model assessed as reduction in K6 protein expression at 20 mg/kg administered topically as 0.3 % ointment pretreated with IMQ for 6 hrs followed by compound addition once daily for 7 days by Western blotting analysis", "assay_type": "functional, organism-based", "conditions": "time 7.0 day"}, "Mus musculus [22]": {"system": "Mus musculus", "experiment": "Anti-inflammatory activity in IMQ-induced psoriasis in female BALB/c mouse assessed as reduction in IL-1beta mRNA level at 20 mg/kg administered topically as 0.3 % ointment pretreated with IMQ for 6 hrs followed by compound addition once daily for 7 days by q-PCR analysis", "assay_type": "functional, organism-based", "conditions": "time 7.0 day"}, "Mus musculus [23]": {"system": "Mus musculus", "experiment": "Anti-psoriasis effect in IMQ-induced female BALB/c mouse assessed as change in size of spleen at 20 mg/kg administered topically as 0.3 % ointment pretreated with IMQ for 6 hrs followed by compound addition once daily for 7 days by H and E staining based analysis", "assay_type": "functional, organism-based", "conditions": "time 7.0 day"}, "HaCaT [24]": {"system": "HaCaT", "experiment": "Anti-psoriasis effect in M5-stimulated human HaCaT cells assessed as upregulation of K1 protein expression at 20 uM pretreated with M5 followed by compound addition and measured after 24 hrs by Western blotting analysis", "assay_type": "functional, cell-based"}, "Mus musculus [25]": {"system": "Mus musculus", "experiment": "Anti-psoriasis effect in IMQ-induced female BALB/c mouse assessed as reduction in psoriasis severity index score at 20 mg/kg administered topically as 0.3 % ointment pretreated with IMQ for 6 hrs followed by compound addition once daily for 7 days", "assay_type": "functional, organism-based", "conditions": "time 7.0 day"}, "Mus musculus [26]": {"system": "Mus musculus", "experiment": "Anti-psoriasis effect in IMQ-induced female BALB/c mouse model assessed as reduction in fibroblast proliferation at 20 mg/kg administered topically as 0.3 % ointment pretreated with IMQ for 6 hrs followed by compound addition once daily for 7 days by H and E staining based analysis", "assay_type": "functional, organism-based", "conditions": "time 7.0 day"}}, "note": "Activity calls are given as the source filed them. No cut-off for these calls is given here."}
{"smiles": "COC(=O)[C@H]1C[C@@H](Oc2c(O)ccc3cc(-c4ccc(OC(F)F)c(OCC5CC5)c4)oc23)CN1", "values": [{"measurement": "Activity", "setting": "Mus musculus [1]", "result": "Active"}, {"measurement": "Activity", "setting": "HaCaT [2]", "result": "Active"}, {"measurement": "Activity", "setting": "RAW264.7", "result": "Dose-dependent-effect"}, {"measurement": "IC50", "setting": "[3]", "result": 1.73, "unit": "µM"}, {"measurement": "Activity", "setting": "Mus musculus [4]", "result": "Active"}, {"measurement": "IC50", "setting": "[5]", "result": 0.0086, "unit": "µM"}, {"measurement": "Activity", "setting": "HaCaT [6]", "result": "Active"}, {"measurement": "Activity", "setting": "Mus musculus [7]", "result": "Active"}, {"measurement": "Activity", "setting": "Mus musculus [8]", "result": "Active"}, {"measurement": "Activity", "setting": "Mus musculus [9]", "result": "Active"}, {"measurement": "Activity", "setting": "Mus musculus [10]", "result": "Active"}, {"measurement": "IC50", "setting": "[11]", "result": 1.95, "unit": "µM"}, {"measurement": "Activity", "setting": "Mus musculus [12]", "result": "Active"}, {"measurement": "Activity", "setting": "Mus musculus [13]", "result": "Active"}, {"measurement": "Activity", "setting": "Mus musculus [14]", "result": "Active"}, {"measurement": "Activity", "setting": "HaCaT [15]", "result": "Active"}, {"measurement": "Activity", "setting": "HaCaT [16]", "result": "Dose-dependent-effect"}, {"measurement": "Activity", "setting": "HaCaT [17]", "result": "Active"}, {"measurement": "Activity", "setting": "Mus musculus [18]", "result": "Active"}, {"measurement": "Activity", "setting": "Mus musculus [19]", "result": "Active"}, {"measurement": "Activity", "setting": "Mus musculus [20]", "result": "Active"}, {"measurement": "Activity", "setting": "Mus musculus [21]", "result": "Active"}, {"measurement": "Activity", "setting": "Mus musculus [22]", "result": "Active"}, {"measurement": "Activity", "setting": "Mus musculus [23]", "result": "Active"}, {"measurement": "Activity", "setting": "HaCaT [24]", "result": "Active"}, {"measurement": "Activity", "setting": "Mus musculus [25]", "result": "Active"}, {"measurement": "Activity", "setting": "Mus musculus [26]", "result": "Active"}]}
